Read-outs that look alike come from different tables or passages of the source.
How the values were obtained:
Test in all cases: In vitro competitive activity-based protein profiling (gel-based, FP-Rh or HT-01 probe)
Assay type in all cases: biochemical
[1] = target: T1, PLA2G7 (Mus musculus, UniProt Q60963); settings: for inhibition at 1 µM: 1 μM inhibitor, read-out: % Inhibition at 1 μM, D = PLA2G7; for inhibition at 10 µM: 10 μM inhibitor, read-out: % Inhibition at 10 μM, D = PLA2G7; for IC50: mouse brain membrane fraction or cell lysates, 30 min preincubation at 37° C.
T1 construct: Proteomes (mouse brain membrane fraction or cell lysates); from tissue; host or cells: mouse brain membrane fraction (or cell lysates, not specified)
T1 sequence (Q60963 22-440): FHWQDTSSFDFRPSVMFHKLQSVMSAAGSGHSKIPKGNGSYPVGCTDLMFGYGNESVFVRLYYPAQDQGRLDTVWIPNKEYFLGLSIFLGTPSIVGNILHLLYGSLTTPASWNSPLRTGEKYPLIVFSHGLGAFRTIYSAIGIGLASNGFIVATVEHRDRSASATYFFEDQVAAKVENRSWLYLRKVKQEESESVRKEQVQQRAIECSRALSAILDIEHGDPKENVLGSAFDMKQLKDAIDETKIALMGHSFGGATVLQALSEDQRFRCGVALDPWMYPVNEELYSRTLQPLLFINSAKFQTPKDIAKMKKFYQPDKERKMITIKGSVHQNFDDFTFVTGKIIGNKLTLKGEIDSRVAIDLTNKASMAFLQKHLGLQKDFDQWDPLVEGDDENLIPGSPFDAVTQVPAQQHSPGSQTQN
How it was run: (§1)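 Mouse brain membrane proteome or cell lysate (1.0 mg/mL protein) was preincubated with inhibitor at varying concentrations for 30 min at 37° C, then labelled with FP-Rh or HT-01 for 30 min at 37° C. After SDS-PAGE, residual hydrolase activity was quantified as in-gel fluorescence of each band.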

[2] = target: T2, ABHD6 (Mus musculus, UniProt Q8R2Y0); settings: for inhibition at 1 µM: 1 μM inhibitor, read-out: % Inhibition at 1 μM, C = ABHD6; for inhibition at 10 µM: 10 μM inhibitor, read-out: % Inhibition at 10 μM, C = ABHD6
T2 construct: Proteomes (mouse brain membrane fraction or cell lysates); from tissue; host or cells: mouse brain membrane fraction (or cell lysates, not specified)
T2 sequence (Q8R2Y0 1-336): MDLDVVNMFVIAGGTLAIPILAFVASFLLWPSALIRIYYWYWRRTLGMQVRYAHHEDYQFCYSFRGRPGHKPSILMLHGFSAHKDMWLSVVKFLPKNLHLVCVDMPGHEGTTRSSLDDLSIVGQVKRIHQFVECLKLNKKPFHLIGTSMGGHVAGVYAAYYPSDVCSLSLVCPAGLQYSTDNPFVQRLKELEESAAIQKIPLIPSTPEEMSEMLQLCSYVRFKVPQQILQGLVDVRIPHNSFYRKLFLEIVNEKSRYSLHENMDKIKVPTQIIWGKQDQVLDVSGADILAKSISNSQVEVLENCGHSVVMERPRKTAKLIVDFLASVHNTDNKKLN
How it was run: as §1

[3] = target: T3, FAAH (Mus musculus, UniProt O08914); settings: for inhibition at 1 µM: 1 μM inhibitor, read-out: % Inhibition at 1 μM, B = FAAH; for inhibition at 10 µM: 10 μM inhibitor, read-out: % Inhibition at 10 μM, B = FAAH
T3 construct: Proteomes (mouse brain membrane fraction or cell lysates); from tissue; host or cells: mouse brain membrane fraction (or cell lysates, not specified)
T3 sequence (O08914 1-579): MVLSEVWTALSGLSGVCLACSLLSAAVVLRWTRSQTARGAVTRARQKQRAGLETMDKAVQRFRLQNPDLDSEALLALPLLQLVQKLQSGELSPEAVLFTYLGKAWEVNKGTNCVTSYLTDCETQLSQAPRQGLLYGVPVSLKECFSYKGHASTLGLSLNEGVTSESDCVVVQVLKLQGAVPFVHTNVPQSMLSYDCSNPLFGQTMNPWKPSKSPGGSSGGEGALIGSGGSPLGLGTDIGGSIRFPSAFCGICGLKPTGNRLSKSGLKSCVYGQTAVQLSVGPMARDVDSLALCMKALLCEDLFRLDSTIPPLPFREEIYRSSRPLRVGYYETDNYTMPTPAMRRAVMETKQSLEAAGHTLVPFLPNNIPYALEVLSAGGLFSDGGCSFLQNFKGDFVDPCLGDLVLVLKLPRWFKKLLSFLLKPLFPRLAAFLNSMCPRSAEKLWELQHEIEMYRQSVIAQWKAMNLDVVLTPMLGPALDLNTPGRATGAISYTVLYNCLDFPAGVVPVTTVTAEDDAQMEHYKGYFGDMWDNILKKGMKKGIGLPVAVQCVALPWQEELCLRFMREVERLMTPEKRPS
How it was run: as §1

[4] = target: T4, MAGL (Mus musculus, UniProt O35678); settings: for inhibition at 1 µM: 1 μM inhibitor; for inhibition at 10 µM: 10 μM inhibitor
T4 construct: Proteomes (mouse brain membrane fraction or cell lysates); from tissue; host or cells: mouse brain membrane fraction (or cell lysates, not specified)
T4 sequence (O35678 1-303): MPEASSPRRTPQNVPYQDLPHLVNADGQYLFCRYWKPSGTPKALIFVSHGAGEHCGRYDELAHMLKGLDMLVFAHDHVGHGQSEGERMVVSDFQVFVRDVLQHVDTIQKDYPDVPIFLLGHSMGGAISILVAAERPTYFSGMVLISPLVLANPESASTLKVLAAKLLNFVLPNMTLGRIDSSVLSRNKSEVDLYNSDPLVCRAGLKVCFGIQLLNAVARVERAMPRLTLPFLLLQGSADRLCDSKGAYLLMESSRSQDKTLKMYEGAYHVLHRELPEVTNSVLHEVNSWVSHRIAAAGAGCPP
How it was run: as §1

| Compound | inhibition at 1 µM [1] | inhibition at 10 µM [1] | inhibition at 1 µM [2] | inhibition at 10 µM [2] | inhibition at 1 µM [3] | inhibition at 10 µM [3] | inhibition at 1 µM [4] | inhibition at 10 µM [4] | IC50 ([2]; mouse brain membrane fraction or cell lysates, 30 min preincubation at 37° C., read-out: Mouse (IC50 value, nM) ABHD6) | IC50 ([3]; mouse brain membrane fraction or cell lysates, 30 min preincubation at 37° C., read-out: Mouse (IC50 value, nM) FAAH) | IC50 ([4]; mouse brain membrane fraction or cell lysates, 30 min preincubation at 37° C., read-out: Mouse (IC50 value, nM) MAGL) | IC50 [1] | IC50 [2] | IC50 [3] | IC50 [4] |
| --- | --- | --- | --- | --- | --- | --- | --- | --- | --- | --- | --- | --- | --- | --- | --- |
| CS(=O)(=O)N1CCN(C(=O)n2cc(Cl)cn2)CC1 [Example 184, (4-Chloro-1H-pyrazol-1-yl)(4-(methylsulfonyl)piperazin-1-yl)methanone] | > 75% | > 75% | > 75% | > 75% | < 25% | 25 to 75% | < 25% | < 25% | – | – | – | – | – | – | – |
| CN1CCN(C(=O)n2cc(Cl)cn2)CC1 [Example 185, (4-Chloro-1H-pyrazol-1-yl)(4-methylpiperazin-1-yl)methanone] | < 25% | > 75% | > 75% | > 75% | < 25% | > 75% | < 25% | 25 to 75% | – | – | – | – | – | – | – |
| O=C(N1CCN(Cc2ccccc2)CC1)n1cc(Cl)cn1 [Example 186, (4-Benzylpiperazin-1-yl)(4-chloro-1H-pyrazol-1-yl)methanone] | < 25% | > 75% | > 75% | > 75% | > 75% | > 75% | > 75% | > 75% | – | – | – | > 1000 nM | < 100 nM | 100 to 1000 nM | < 100 nM |
| O=C(c1ccccc1)N1CCN(C(=O)n2cc(Cl)cn2)CC1 [Example 187, (4-Benzoylpiperazin-1-yl)(4-chloro-1H-pyrazol-1-yl)methanone] | > 75% | > 75% | < 25% | 25 to 75% | < 25% | > 75% | 25 to 75% | > 75% | – | – | – | – | – | – | – |
| CS(=O)(=O)N1CCCN(C(=O)n2cc(Cl)cn2)CC1 [Example 189, (4-Chloro-1H-pyrazol-1-yl)(4-(methylsulfonyl)-1,4-diazepan-1-yl)methanone] | < 25% | < 25% | > 75% | > 75% | > 75% | > 75% | < 25% | 25 to 75% | – | – | – | – | – | – | – |
| O=C(N1CCCN(Cc2ccccc2)CC1)n1cc(Cl)cn1 [Example 191, (4-Benzyl-1,4-diazepan-1-yl)(4-chloro-1H-pyrazol-1-yl)methanone] | < 25% | < 25% | 25 to 75% | > 75% | > 75% | > 75% | < 25% | > 75% | – | – | – | – | – | – | – |
| O=C(c1ccccc1)N1CCCN(C(=O)n2cc(Cl)cn2)CC1 [Example 192, (4-Benzoyl-1,4-diazepan-1-yl)(4-chloro-1H-pyrazol-1-yl)methanone] | < 25% | > 75% | 25 to 75% | > 75% | < 25% | > 75% | 25 to 75% | > 75% | – | – | – | – | – | – | – |
| CC(=O)N(C)CCN(C)C(=O)n1cc(Cl)cn1 [Example 193, 4-Chloro-N-methyl-N-(2-(N-methylacetamido)ethyl)-1H-pyrazole-1-carboxamide] | – | < 25% | – | < 25% | – | < 25% | – | < 25% | – | – | – | – | – | – | – |
| CN(CCN(C)C(=O)n1cc(Cl)cn1)C(=O)c1ccccc1 [Example 194, 4-Chloro-N-methyl-N-(2-(N-methylbenzamido)ethyl)-1H-pyrazole-1-carboxamide] | < 25% | < 25% | < 25% | < 25% | 25 to 75% | > 75% | < 25% | 25 to 75% | – | – | – | – | – | – | – |
| CN(CCN(C)S(C)(=O)=O)C(=O)n1cc(C(F)(F)F)cn1 [Example 195, N-Methyl-N-(2-(N-methylmethylsulfonamido)ethyl)-4-(trifluoromethyl)-1H-pyrazole-1-carboxamide] | < 25% | 25 to 75% | < 25% | > 75% | < 25% | > 75% | < 25% | < 25% | – | – | – | – | – | – | – |

Continued, in another order:

| inhibition at 1 µM [1] | inhibition at 10 µM [1] | inhibition at 1 µM [2] | inhibition at 10 µM [2] | inhibition at 1 µM [3] | inhibition at 10 µM [3] | inhibition at 1 µM [4] | inhibition at 10 µM [4] | IC50 ([2]; mouse brain membrane fraction or cell lysates, 30 min preincubation at 37° C., read-out: Mouse (IC50 value, nM) ABHD6) | IC50 ([3]; mouse brain membrane fraction or cell lysates, 30 min preincubation at 37° C., read-out: Mouse (IC50 value, nM) FAAH) | IC50 ([4]; mouse brain membrane fraction or cell lysates, 30 min preincubation at 37° C., read-out: Mouse (IC50 value, nM) MAGL) | Compound | IC50 [1] | IC50 [2] | IC50 [3] | IC50 [4] |
| --- | --- | --- | --- | --- | --- | --- | --- | --- | --- | --- | --- | --- | --- | --- | --- |
| < 25% | – | < 25% | 25 to 75% | 25 to 75% | > 75% | < 25% | < 25% | – | – | – | CN(CCN(C)S(C)(=O)=O)C(=O)n1cc(C#N)cn1 [Example 197, 4-Cyano-N-methyl-N-(2-(N-methylmethylsulfonamido)ethyl)-1H-pyrazole-1-carboxamide] | – | – | – | – |
| – | < 25% | – | < 25% | – | < 25% | – | < 25% | – | – | – | CN(CCN(C)S(C)(=O)=O)C(=O)n1cc(Cl)cn1 [Example 198, 4-Chloro-N-methyl-N-(2-(N-methylmethylsulfonamido)ethyl)-1H-pyrazole-1-carboxamide] | – | – | – | – |
| 25 to 75% | > 75% | 25 to 75% | > 75% | > 75% | > 75% | < 25% | > 75% | – | – | – | O=C(N1CCCC1)n1cc(C(F)(F)F)cn1 [Example 199, Pyrrolidin-1-yl(4-(trifluoromethyl)-1H-pyrazol-1-yl)methanone] | – | – | – | – |
| > 75% | > 75% | > 75% | > 75% | > 75% | > 75% | > 75% | > 75% | 100 to 1000 nM | 100 to 1000 nM | > 1000 nM | O=C(N1CCCCC1)n1cc(C(F)(F)F)cn1 [Example 200, Piperidin-1-yl(4-(trifluoromethyl)-1H-pyrazol-1-yl)methanone] | 100 to 1000 nM | – | – | – |
| > 75% | > 75% | > 75% | > 75% | > 75% | > 75% | < 25% | 25 to 75% | – | – | – | O=C(N1CCOCC1)n1cc(C(F)(F)F)cn1 [Example 201, Morpholino(4-(trifluoromethyl)-1H-pyrazol-1-yl)methanone] | – | – | – | – |

— patent US10093630B2, “Pyrazole compounds and methods of making and using same” (ABIDE THERAPEUTICS, INC., priority 2014, dated 2018)
